From patent publication US20250195521A1 (Revolution Medicines, Inc., priority 2020, published 2025)
Where “and” joins values, the source holds several entries; their conditions need not be identical. Equal values may be shown once. Read-outs that look alike come from different tables or passages of the source.

Key:
KRAS G12C = KRAS G12C (Homo sapiens (Human), UniProt P01116+P62937, G12C); assay: Ras-Raf disruption/FRET/MOA assay (BRAF RBD, Cyclophilin A); format: biochemical; conditions: read-out: KRAS G12C FRET IC50
How it was run: (§1)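 Ras-GMPPNP (12.5 nM), BRAF RBD (50 nM) and 25 μM Cyclophilin A were incubated with compound for 3 h at 25° C, then detected 1.5 h with anti-His Eu and anti-GST APC; IC50 values follow from the reduced TR-FRET ratio.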

KRAS G12D = KRAS G12D (Homo sapiens (Human), UniProt P01116+P62937, G12D); assay: as above; format: biochemical; conditions: read-out: KRAS G12D FRET IC50
How it was run: as §1

KRAS G12S = KRAS G12S (Homo sapiens (Human), UniProt P01116+P62937, G12S); assay: as above; format: biochemical; conditions: read-out: KRAS G12S FRET IC50
How it was run: as §1

KRAS G12V = KRAS G12V (Homo sapiens (Human), UniProt P01116+P62937, G12V); assay: as above; format: biochemical; conditions: read-out: KRAS G12V FRET IC50
How it was run: as §1

KRAS G13C = KRAS G13C (Homo sapiens (Human), UniProt P01116+P62937, G13C); assay: as above; format: biochemical; conditions: read-out: KRAS G13C FRET IC50
How it was run: as §1

KRAS G13D = KRAS G13D (Homo sapiens (Human), UniProt P01116+P62937, G13D); assay: as above; format: biochemical; conditions: read-out: KRAS G13D FRET data IC50
How it was run: as §1

KRAS WT = KRAS WT (Homo sapiens (Human), UniProt P01116+P62937); assay: as above; format: biochemical; conditions: read-out: KRAS WT FRET data IC50
How it was run: as §1

NRAS G12C = NRAS G12C (Homo sapiens (Human), UniProt P01111+P62937, G12C); assay: as above; format: biochemical; conditions: read-out: NRAS G12C FRET data IC50
How it was run: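 Measured: compound-facilitated Cyclophilin A:Ras complex blocking RAF RBD binding. Conditions: 12.5 nM Ras-GMPPNP, 50 nM BRAF RBD, 25 μM CypA, 3 h plus 1.5 h detection. Output: IC50 from TR-FRET ratio.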

NCI-H358 (K-Ras G12C) = assay: CellTiter-Glo cell viability assay, NCI-H358; format: cell-based, human; conditions: 5-day treatment, read-out: H358 Cell Viability assay data (K-Ras G12C, IC50)
How it was run: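 Viability is measured as ATP-dependent luminescence (CellTiter-Glo) five days into compound treatment. Responses are normalized to vehicle (DMSO) wells and fitted by four-parameter logistic regression.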

[1] = molecular target: K-Ras G12C(GMP-PNP) binding to BRAF RBD (Homo sapiens (Human), UniProt P01116+P62937, G12C); assay: Disruption of BRAF RBD interaction with K-Ras (FRET / MOA assay), K-Ras G12C; format: biochemical
Description: Note—The following protocol describes a procedure for monitoring disruption of K-Ras G12C(GMP-PNP) binding to BRAF^RBD by a compound of the invention. This protocol may also be executed substituting other Ras proteins or nucleotides.
The purpose of this biochemical assay was to measure the ability of test compounds to facilitate ternary complex formation between a nucleotide-loaded K-Ras isoform and Cyclophilin A; the resulting ternary complex disrupts binding to a BRAF^RBD construct, inhibiting K-Ras signaling through a RAF effector. Data is reported as IC50 values.
Compound was present in plate wells as a 10-point 3-fold dilution series starting at a final concentration of 30 μM. After incubation at 25° C. for 3 hours, a mixture of Anti-His Eu—W1024 and anti-GST allophycocyanin was then added to assay sample wells at final concentrations of 10 nM and 50 nM, respectively, and the reaction incubated for an additional 1.5 hours. […] Compounds that facilitate disruption of a K-Ras: RAF complex were identified as those eliciting a decrease in the TR-FRET ratio relative to DMSO control wells.

[2] = system: Capan-1 cells (K-Ras G12V); assay: CellTiter-Glo cell viability, Capan-1; format: cell-based, human; conditions: Homo sapiens, CAPAN-1, 120 h, K-Ras G12V, 5-day treatment; read-out: Capan-1 Cell Viability IC50
How it was run: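 Viability is read as luminescence after five days of compound exposure, with plates first equilibrated to room temperature for roughly 30 minutes. Each signal is expressed as a percentage of the mean DMSO control, and curves are fitted by four-parameter logistic regression.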

[3] = system: K-Ras G12C (NCI-H358 cells); assay: Potency assay: pERK in NCI-H358 cells; format: cell-based, human; conditions: NCI-H358 cells, 4 hours, read-out: pERK EC50 (H358 KRAS G12C)
How it was run: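 Cells plated the day before were exposed for 4 h at 37° C, 5% CO2 to a 10-point, 3-fold DMSO dilution series (10 mM top stock), in duplicate. Phospho-ERK was read by AlphaLISA SureFire Ultra or by In-Cell Western with DRAQ5 DNA stain, and IC50 came from a 4-parameter sigmoidal fit.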

Sequence of NRAS G12C (P01111 whole entry G12C): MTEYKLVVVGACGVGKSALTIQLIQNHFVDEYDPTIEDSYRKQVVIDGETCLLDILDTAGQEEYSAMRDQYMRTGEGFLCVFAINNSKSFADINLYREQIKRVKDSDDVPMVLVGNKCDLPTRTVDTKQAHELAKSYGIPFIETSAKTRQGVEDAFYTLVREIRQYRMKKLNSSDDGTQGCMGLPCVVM
Sequence of NRAS G12C (P62937 whole entry): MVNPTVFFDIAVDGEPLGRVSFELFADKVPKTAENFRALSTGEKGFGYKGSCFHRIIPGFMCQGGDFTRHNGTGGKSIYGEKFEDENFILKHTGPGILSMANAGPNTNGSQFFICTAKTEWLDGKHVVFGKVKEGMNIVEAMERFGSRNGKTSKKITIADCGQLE
Sequence of KRAS G12D (P01116 other isoform, or with tags, fused parts or gaps G12D): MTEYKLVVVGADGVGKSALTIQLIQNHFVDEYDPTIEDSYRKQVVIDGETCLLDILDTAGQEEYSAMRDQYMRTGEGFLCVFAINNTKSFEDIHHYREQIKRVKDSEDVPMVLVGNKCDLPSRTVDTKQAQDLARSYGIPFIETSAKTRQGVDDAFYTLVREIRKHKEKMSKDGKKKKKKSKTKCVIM
Sequence of KRAS G12D (P62937 whole entry): as the sequence (P62937 whole entry) above
Sequence of KRAS WT (P01116 other isoform, or with tags, fused parts or gaps): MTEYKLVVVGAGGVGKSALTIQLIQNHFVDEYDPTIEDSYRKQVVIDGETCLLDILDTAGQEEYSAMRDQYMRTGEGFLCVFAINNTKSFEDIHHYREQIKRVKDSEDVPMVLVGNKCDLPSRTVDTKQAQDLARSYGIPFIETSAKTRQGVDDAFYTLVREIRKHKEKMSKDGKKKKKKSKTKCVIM
Sequence of KRAS WT (P62937 whole entry): as the sequence (P62937 whole entry) above
Sequence of KRAS G12S (P01116 other isoform, or with tags, fused parts or gaps G12S): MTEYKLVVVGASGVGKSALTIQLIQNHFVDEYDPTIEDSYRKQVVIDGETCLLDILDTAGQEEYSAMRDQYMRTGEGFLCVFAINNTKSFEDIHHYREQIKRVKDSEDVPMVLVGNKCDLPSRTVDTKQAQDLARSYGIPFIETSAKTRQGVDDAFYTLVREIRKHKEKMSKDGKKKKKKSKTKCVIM
Sequence of KRAS G12S (P62937 whole entry): as the sequence (P62937 whole entry) above
Sequence of K-Ras G12C(GMP-PNP) binding to BRAF RBD (P01116 other isoform, or with tags, fused parts or gaps G12C): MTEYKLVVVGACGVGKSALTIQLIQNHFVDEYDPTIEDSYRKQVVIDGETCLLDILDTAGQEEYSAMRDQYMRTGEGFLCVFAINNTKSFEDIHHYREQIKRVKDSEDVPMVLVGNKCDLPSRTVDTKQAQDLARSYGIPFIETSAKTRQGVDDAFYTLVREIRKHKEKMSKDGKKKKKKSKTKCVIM
Sequence of K-Ras G12C(GMP-PNP) binding to BRAF RBD (P62937 whole entry): as the sequence (P62937 whole entry) above
Sequence of KRAS G12C (P01116-2 other isoform, or with tags, fused parts or gaps G12C): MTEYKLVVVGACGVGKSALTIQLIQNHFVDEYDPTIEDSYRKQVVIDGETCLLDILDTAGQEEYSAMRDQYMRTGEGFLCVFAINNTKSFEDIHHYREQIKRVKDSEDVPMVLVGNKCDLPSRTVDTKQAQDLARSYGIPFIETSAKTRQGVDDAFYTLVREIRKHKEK
Sequence of KRAS G12C (P62937 whole entry): as the sequence (P62937 whole entry) above
Sequence of KRAS G13C (P01116 other isoform, or with tags, fused parts or gaps G13C): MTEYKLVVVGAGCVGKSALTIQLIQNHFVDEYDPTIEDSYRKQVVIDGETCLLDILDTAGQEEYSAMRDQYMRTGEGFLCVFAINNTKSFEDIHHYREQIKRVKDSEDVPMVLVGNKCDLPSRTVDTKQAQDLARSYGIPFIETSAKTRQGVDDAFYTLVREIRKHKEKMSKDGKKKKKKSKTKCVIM
Sequence of KRAS G13C (P62937 whole entry): as the sequence (P62937 whole entry) above
Sequence of KRAS G13D (P01116 other isoform, or with tags, fused parts or gaps G13D): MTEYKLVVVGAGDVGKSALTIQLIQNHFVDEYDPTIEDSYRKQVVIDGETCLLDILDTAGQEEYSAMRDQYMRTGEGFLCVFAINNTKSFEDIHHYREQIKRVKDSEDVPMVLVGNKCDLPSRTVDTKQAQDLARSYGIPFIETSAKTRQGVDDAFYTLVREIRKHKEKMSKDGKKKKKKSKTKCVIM
Sequence of KRAS G13D (P62937 whole entry): as the sequence (P62937 whole entry) above
Sequence of KRAS G12V (P01116 other isoform, or with tags, fused parts or gaps G12V): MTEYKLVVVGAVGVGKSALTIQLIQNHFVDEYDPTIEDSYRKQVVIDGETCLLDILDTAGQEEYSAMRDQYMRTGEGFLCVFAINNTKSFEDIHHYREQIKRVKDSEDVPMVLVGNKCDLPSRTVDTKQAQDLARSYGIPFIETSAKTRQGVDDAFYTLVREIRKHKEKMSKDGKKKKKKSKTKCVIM
Sequence of KRAS G12V (P62937 whole entry): as the sequence (P62937 whole entry) above

SMILES | IC50 (KRAS G12C) [nM] | IC50 (KRAS G12D) [nM] | IC50 (KRAS G12S) [nM] | IC50 (KRAS G13C) [nM] | IC50 (KRAS G13D) [nM] | IC50 (KRAS WT) [nM] | IC50 (NRAS G12C) [nM] | IC50 (NCI-H358 (K-Ras G12C); Homo sapiens, NCI-H358, 120 h) [nM] | IC50 ([1]; read-out: KRAS G12C FRET IC50) | EC50 ([3]; Homo sapiens) [µM] | IC50 (KRAS G12V) [nM] | IC50 ([1]; KRAS G12C FRET IC50) | IC50 [2] [µM] | EC50 [3] [µM] | IC50 (NCI-H358 (K-Ras G12C)) [nM]
CCn1c(-c2cccnc2[C@H](C)OC)c2c3cc(ccc31)-c1csc(n1)C[C@H](NC(=O)[C@H](C(C)C)N1CCC3(CCN(S(C)(=O)=O)C3)C1=O)C(=O)N1CCC[C@H](N1)C(=O)OCC(C)(C)C2 (stereo partly drawn) [Compound A220] | 1000 to 10000 | > 10000 | 1000 to 10000 | 1000 to 10000 | > 10000 | 1000 to 10000 | 1000 to 10000 | > 10000 |  |  | 1000 to 10000 | 100 to 1000 nM and 1000 to 10000 nM |  |  | 
CCn1c(-c2cnccc2COC)c2c3cc(ccc31)-c1cc(O)cc(c1)C[C@H](NC(=O)[C@H](C(C)C)N(C)C(=O)[C@H]1CN(C(C)=O)C[C@H]1C(F)(F)F)C(=O)N1CCC[C@H](N1)C(=O)OCC(C)(C)C2 [Compound A215] | 100 to 1000 | 1000 to 10000 | 100 to 1000 | 10 to 100 | 100 to 1000 | 100 to 1000 | 100 to 1000 |  | 100 to 1000 nM and > 10000 nM |  | 100 to 1000 |  | > 10 |  | 
CCn1c(-c2cccnc2[C@H](C)OC)c2c3cc(ccc31)-c1csc(n1)C[C@H](NC(=O)[C@H](C(C)C)N(C)C(=O)N1CC[C@H]3CN(C)C[C@H]31)C(=O)N1CCC[C@H](N1)C(=O)OCC(C)(C)C2 [Compound A471] |  |  |  |  |  |  |  | 10 to 100 | 100 to 1000 nM |  |  |  | 0.1 to 1 |  | 
CCn1c(-c2cccnc2[C@H](C)OC)c2c3cc(ccc31)-c1cc(O)cc(c1)C[C@H](NC(=O)[C@H](C(C)C)N(C)C(=O)C1(CN)CC1)C(=O)N1CCC[C@H](N1)C(=O)OCC(C)(C)C2 [Compound A139] | 10 to 100 | 10 to 100 |  | 10 to 100 | 10 to 100 | 10 to 100 |  | 100 to 1000 | 10 to 100 nM |  |  |  |  |  | 
CCn1c(-c2cccnc2[C@H](C)OC)c2c3cc(ccc31)-c1csc(n1)C[C@H](NC(=O)[C@H](C(C)C)N1CCCC1=O)C(=O)N1CCC[C@H](N1)C(=O)OCC(C)(C)C2 [Compound A212] | 1000 to 10000 | > 10000 | > 10000 | 1000 to 10000 | > 10000 | > 10000 | 1000 to 10000 |  | 100 to 1000 nM and 1000 to 10000 nM |  |  |  | > 10 |  | 
CCn1c(-c2cccnc2[C@H](C)OC)c2c3cc(ccc31)-c1cc(O)cc(c1)C[C@H](NC(=O)[C@H](C(C)C)N(C)C(=O)[C@H]1CCN(C(C)=O)C1)C(=O)N1CCC[C@H](N1)C(=O)NCC(C)(C)C2 [Compound A431] | 100 to 1000 | 1000 to 10000 | 100 to 1000 | 100 to 1000 | 1000 to 10000 | 1000 to 10000 | 100 to 1000 | 10 to 100 | 100 to 1000 nM |  | 100 to 1000 |  |  |  | 
CCn1c(-c2cccnc2[C@H](C)OC)c2c3cc(ccc31)-c1cc(O)cc(c1)C[C@H](NC(=O)[C@H](C(C)C)N(C)C(=O)[C@H]1CCN(C(=O)OC(C)C)C1)C(=O)N1CCC[C@H](N1)C(=O)OCC(C)(C)C2 [Compound A117] |  |  |  |  |  |  |  | 100 to 1000 | 100 to 1000 nM | < 5 |  |  |  |  | 
CCn1c(-c2cccnc2[C@H](C)OC)c2c3cc(ccc31)C1=C[C@@H](O)CN(C1)C[C@H](NC(=O)[C@H]1[C@H](C)[C@@H]1C)C(=O)N1CCC[C@H](N1)C(=O)OCC(C)(C)C2 [Compound A424, (1R,2R,3S)—N-((2^3R,6^3S,4S)-1^1-ethyl-23-hydroxy-1^2-(2-((S)-1-methoxyethyl)pyridin-3-yl)-10,10-dimethyl-5,7-dioxo-2^1,2^2,2^3,2^6,6^1,6^2,6^3,6^4,6^5,6^6-decahydro-1^1H-8-oxa-1 (5,3)-indola-6 (1,3)-pyridazina-2 (5,1)-pyridinacycloundecaphane-4-yl)-2,3-dimethylcyclopropane-1-carboxamide] | 10 to 100 | 100 to 1000 | 10 to 100 | 10 to 100 |  |  |  |  | 100 to 1000 nM |  | 10 to 100 |  |  | < 5 | 100 to 1000
CCn1c(-c2cccnc2[C@H](C)OC)c2c3cc(ccc31)-c1cc(O)cc(c1)C[C@H](NC(=O)[C@@H](NC(C)=O)C(C)(C)OC)C(=O)N1CCC[C@H](N1)C(=O)OCC(C)(C)C2 [Compound A172] |  |  |  |  |  |  |  | 10 to 100 | 10 to 100 nM | < 5 |  |  |  |  | 
CCn1c(-c2cccnc2[C@H](C)OC)c2c3cc(ccc31)-c1csc(n1)C[C@H](NC(=O)[C@H](C1CCCC1)N(C)C(=O)N1CCN(C)CC1)C(=O)N1CCC[C@H](N1)C(=O)OCC(C)(C)C2 [Compound A525] |  |  |  |  |  |  |  | < 10 | 10 to 100 nM | < 5 |  |  |  |  | 

Now from value to molecule, other results behind:

IC50 (KRAS G12C) [nM] | IC50 (KRAS G12D) [nM] | IC50 (KRAS G12S) [nM] | IC50 (KRAS G13C) [nM] | IC50 (KRAS G13D) [nM] | IC50 (KRAS WT) [nM] | IC50 (NRAS G12C) [nM] | IC50 (NCI-H358 (K-Ras G12C); Homo sapiens, NCI-H358, 120 h) [nM] | IC50 ([1]; read-out: KRAS G12C FRET IC50) | EC50 ([3]; Homo sapiens) [µM] | SMILES | IC50 (KRAS G12V) [nM] | IC50 ([1]; KRAS G12C FRET IC50) | IC50 [2] [µM] | EC50 [3] [µM] | IC50 (NCI-H358 (K-Ras G12C)) [nM]
10 to 100 |  |  |  |  |  |  | < 10 | 10 to 100 nM | < 5 | CCn1c(-c2cccnc2[C@H](C)OC)c2c3cc(ccc31)-c1cc(O)cc(c1)C[C@H](NC(=O)[C@H](C(C)C)N(C)C(=O)[C@@H]1CNC[C@@H]1C)C(=O)N1CCC[C@H](N1)C(=O)OCC(C)(C)C2 [Compound A128] |  |  | > 10 |  | 
 |  |  |  |  |  |  | < 10 | < 10 nM | < 5 | CCn1c(-c2cccnc2[C@H](C)OC)c2c3cc(ccc31)-c1csc(n1)C[C@H](NC(=O)[C@H](C(C)C)N(C)C(=O)N1CCC13CCOCC3)C(=O)N1CCC[C@H](N1)C(=O)OCC(C)(C)C2 [Compound A601] |  |  |  |  | 
 |  |  |  |  |  |  | < 10 | < 10 nM | < 5 | CCn1c(-c2cccnc2[C@H](C)OC)c2c3cc(ccc31)-c1csc(n1)C[C@H](NC(=O)[C@H](C(C)C)N(C)C(=O)N1CCN(C(=O)CN(C)C)CC1)C(=O)N1CCC[C@H](N1)C(=O)OCC(C)(C)C2 [Compound A290] |  |  |  |  | 
 |  |  |  |  |  |  | < 10 | < 10 nM |  | CCn1c(-c2cccnc2[C@H](C)OC)c2c3cc(ccc31)-c1cc(O)cc(c1)C[C@H](NC(=O)[C@H](C(C)C)N(C)C(=O)[C@H]1CCN(C(=O)[C@@]3(C)CCCN3)C1)C(=O)N1CCC[C@H](N1)C(=O)OCC(C)(C)C2 [Compound A135] |  |  | 1 to 10 |  | 10 to 100
